Tested on: DIO-NASH mice
Test: Plasma urea at termination
Format: in vivo, male C57BL/6JRj mice
Conditions: termination; group mean; CHS-131 High dose (alone or combined)
Experimental: For plasma biochemistry, tail blood was drawn directly through the capillary of a Microvette/Vacuette of the right dimension and anticoagulant and mixed by inversion 5 times. Blood was placed at 4° C. until centrifugation at 3000×g for 10 minutes at 4° C. The plasma supernatants were transferred to new tubes and immediately frozen on dry ice and stored at −80° C. until analysis.
Mouse insulin was measured in single determinations using the MSD platform (Meso Scale Diagnostics).
Plasma urea at termination (mmol/L). Values expressed as mean of n=12-14+SEM.

Plasma urea at termination: 7.86 mmol/L
SMILES: CCCCCCCCCCCCCCCC(=O)N[C@@H](CCC(=O)NCCCC[C@H](NC(=O)[C@H](C)NC(=O)[C@H](C)NC(=O)[C@H](CCC(N)=O)NC(=O)CNC(=O)[C@H](CCC(=O)O)NC(=O)[C@H](CC(C)C)NC(=O)[C@H](Cc1ccc(O)cc1)NC(=O)[C@H](CO)NC(=O)[C@H](CO)NC(=O)[C@@H](NC(=O)[C@H](CC(=O)O)NC(=O)[C@H](CO)NC(=O)[C@@H](NC(=O)[C@H](Cc1ccccc1)NC(=O)[C@@H](NC(=O)CNC(=O)[C@H](CCC(=O)O)NC(=O)[C@H](C)NC(=O)[C@@H](N)Cc1cnc[nH]1)[C@@H](C)O)[C@@H](C)O)C(C)C)C(=O)N[C@@H](CCC(=O)O)C(=O)N[C@@H](Cc1ccccc1)C(=O)N[C@H](C(=O)N[C@@H](C)C(=O)N[C@@H](Cc1c[nH]c2ccccc12)C(=O)N[C@@H](CC(C)C)C(=O)N[C@H](C(=O)N[C@@H](CCCNC(=N)N)C(=O)NCC(=O)N[C@@H](CCCNC(=N)N)C(=O)NCC(=O)O)C(C)C)[C@@H](C)CC)C(=O)O [Liraglutide, reference compound]

— patent US20220143003A1, “COMPOSITIONS AND METHODS TO TREAT NON-ALCOHOLIC FATTY LIVER DISEASES (NAFLD)” (Coherus Biosciences, Inc., priority 2018, published 2022)
